In general, inhibition refers to the drop in the measured response relative to a control, in per cent.

Test [1] addresses T1, Class 1 histone deacetylase (Homo sapiens, UniProt Q13547+O15379+Q92769+Q9BY41). The settings on record: CAL-27.
Description: Inhibition of class 1 HDAC in human CAL27 cells assessed as potentiation of cisplatin-induced cytotoxicity by measuring combination index at 0.5 uM in presence of 0.32 uM cisplatin by MTT assay based Chou-Talalay analysis
Test [2] deals with T1, Class 1 histone deacetylase. The settings on record: CAL-27. This is another data set of the same source.
Description: Inhibition of class 1 HDAC in human CAL27 cells assessed as potentiation of cisplatin-induced cytotoxicity by measuring combination index at 0.5 uM in presence of 0.1 uM cisplatin by MTT assay based Chou-Talalay analysis
Test [3] shares this target. The settings on record: CAL-27. This is another data set of the same source.
Description: Inhibition of class 1 HDAC in human CAL27 cells assessed as potentiation of cisplatin-induced cytotoxicity by measuring combination index at 0.5 uM in presence of 1 uM cisplatin by MTT assay based Chou-Talalay analysis
The target is the same in test [4].
Description: Inhibition of class 1 HDAC in human Cal27CisR cells assessed as potentiation of cisplatin-induced cytotoxicity by measuring combination index at 0.5 uM in presence of 10 uM cisplatin by MTT assay based Chou-Talalay analysis
Test [5] has the same target. The source holds these as a separate data set.
Description: Inhibition of class 1 HDAC in human Cal27CisR cells assessed as potentiation of cisplatin-induced cytotoxicity by measuring combination index at 0.5 uM in presence of 3.2 uM cisplatin by MTT assay based Chou-Talalay analysis
Test [6] shares this target. The settings on record: CAL-27. The source holds these as a separate data set.
Description: Inhibition of class 1 HDAC in human CAL27 cells assessed as potentiation of cisplatin-induced cytotoxicity by measuring combination index at 0.5 uM in presence of 3.2 uM cisplatin by MTT assay based Chou-Talalay analysis
For test [7] the target is unchanged. This is another data set of the same source.
Description: Inhibition of class 1 HDAC in human Cal27CisR cells assessed as potentiation of cisplatin-induced cytotoxicity by measuring combination index at 0.5 uM in presence of 100 uM cisplatin by MTT assay based Chou-Talalay analysis
For test [8] the target is unchanged. The source holds these as a separate data set.
Description: Inhibition of class 1 HDAC in human Cal27CisR cells assessed as potentiation of cisplatin-induced cytotoxicity by measuring combination index at 0.5 uM in presence of 1 uM cisplatin by MTT assay based Chou-Talalay analysis
Test [9] has as its system CAL-27. In words: Induction of apoptosis in human CAL27 cells assessed as accumulation at sub-G1 phase at 5 uM after 48 hrs by propidium iodide staining based flow cytometry. The test is classed as functional, cell-based. (Flow cytometry measures light scatter and fluorescence of single cells or particles in a stream.)
In test [10] the target is T1, Class 1 histone deacetylase. Nature of the test: Inhibition of class 1 HDAC in human Cal27CisR cells assessed as potentiation of cisplatin-induced cytotoxicity by measuring combination index at 1 uM in presence of 32 uM cisplatin by MTT assay based Chou-Talalay analysis. It is filed as cell-based. On the technique in general: Tetrazolium assays rely on reduction of a dye to a coloured formazan, in cell work by metabolically active cells.

Test [11] shares this target. In words: Inhibition of class 1 HDAC in human CAL27 cells assessed as potentiation of cisplatin-induced cytotoxicity by measuring combination index at […] in presence of 10 uM cisplatin by MTT assay based Chou-Talalay analysis. It is filed as cell-based. The settings on record: CAL-27.
Test [12] has the same target. In words: Inhibition of class 1 HDAC in human Cal27CisR cells assessed as potentiation of cisplatin-induced cytotoxicity by measuring combination index at 1 uM in presence of 1 uM cisplatin by MTT assay based Chou-Talalay analysis. It is filed as cell-based.
The target is the same in test [13]. In words: Inhibition of class 1 HDAC in human Cal27CisR cells assessed as potentiation of cisplatin-induced cytotoxicity by measuring combination index at 1 uM in presence of […] cisplatin by MTT assay based Chou-Talalay analysis. The test is classed as cell-based.
Test [14] has as its target Histone deacetylase 3/Nuclear receptor corepressor 2 (HDAC3/NCoR2) (Homo sapiens) (UniProt O15379+Q9Y618). In words: Inhibition of human recombinant full length C-terminal His-tagged HDAC3 (1 to 428 residues)/N-terminal GST-tagged NCOR2 (395 to 489 residues) expressed in baculovirus infected Sf9 insect cells at 10 uM using Boc-Lys(epsilon-acetyl)-AMC as substrate incubated for 90 mins by fluorescence assay relative to control.

In test [15] the target is T1, Class 1 histone deacetylase. Nature of the test: Inhibition of class 1 HDAC in human Cal27CisR cells assessed as potentiation of cisplatin-induced cytotoxicity by measuring combination index at […] in presence of 10 uM cisplatin by MTT assay based Chou-Talalay analysis. It is filed as cell-based.
The target is the same in test [16]. In words: (§1) Inhibition of class 1 HDAC in human CAL27 cells assessed as potentiation of cisplatin-induced cytotoxicity by measuring combination index at […] in presence of […] cisplatin by MTT assay based Chou-Talalay analysis. It is filed as cell-based. The settings on record: CAL-27.
Test [17] shares this target. Nature of the test: Inhibition of class 1 HDAC in human CAL27 cells assessed as potentiation of cisplatin-induced cytotoxicity by measuring combination index at […] in presence of 0.1 uM cisplatin by MTT assay based Chou-Talalay analysis. The test is classed as cell-based. The settings on record: CAL-27.
Test [18] shares this target. Nature of the test: (§2) Inhibition of class 1 HDAC in human CAL27 cells assessed as potentiation of cisplatin-induced cytotoxicity by measuring combination index at 1 uM in presence of […] cisplatin by MTT assay based Chou-Talalay analysis. It is filed as cell-based. The settings on record: CAL-27.
Test [19] shares this target. Nature of the test: Inhibition of class 1 HDAC in human CAL27 cells assessed as potentiation of cisplatin-induced cytotoxicity by measuring combination index at 1 uM in presence of 0.10 uM cisplatin by MTT assay based Chou-Talalay analysis. The test is classed as cell-based. The settings on record: CAL-27.
Test [20] shares this target. Nature of the test: Inhibition of class 1 HDAC in human Cal27CisR cells assessed as potentiation of cisplatin-induced cytotoxicity by measuring combination index at […] in presence of 100 uM cisplatin by MTT assay based Chou-Talalay analysis. The test is classed as cell-based.
The target is the same in test [21]. Nature of the test: Inhibition of class 1 HDAC in human CAL27 cells assessed as potentiation of cisplatin-induced cytotoxicity by measuring combination index at 1 uM in presence of 1 uM cisplatin by MTT assay based Chou-Talalay analysis. The test is classed as cell-based. The settings on record: CAL-27.
For test [22] the target is unchanged. Nature of the test: Inhibition of class 1 HDAC in human CAL27 cells assessed as potentiation of cisplatin-induced cytotoxicity by measuring combination index at […] in presence of 1 uM cisplatin by MTT assay based Chou-Talalay analysis. The test is classed as cell-based. The settings on record: CAL-27.
Test [23] shares this target. Described as §1. It is filed as cell-based. The settings on record: CAL-27. The source holds these as a separate data set.
Test [24] has the same target. The description is as §2. It is filed as cell-based. The settings on record: CAL-27. This is another data set of the same source.
Test [25] has the same target. Nature of the test: Inhibition of class 1 HDAC in human Cal27CisR cells assessed as potentiation of cisplatin-induced cytotoxicity by measuring combination index at […] in presence of […] cisplatin by MTT assay based Chou-Talalay analysis. It is filed as cell-based.
The target is the same in test [26]. In words: Inhibition of class 1 HDAC in human Cal27CisR cells assessed as potentiation of cisplatin-induced cytotoxicity by measuring combination index at 1 uM in presence of 100 uM cisplatin by MTT assay based Chou-Talalay analysis. It is filed as cell-based.
The target is the same in test [27]. Nature of the test: Inhibition of class 1 HDAC in human Cal27CisR cells assessed as potentiation of cisplatin-induced cytotoxicity by measuring combination index at […] in presence of 32 uM cisplatin by MTT assay based Chou-Talalay analysis. It is filed as cell-based.

The structures appear in SMILES notation. Active and inactive are the calls of the source. The rule behind the calls is not given here.

T1 sequence (O15379 whole entry, looked up): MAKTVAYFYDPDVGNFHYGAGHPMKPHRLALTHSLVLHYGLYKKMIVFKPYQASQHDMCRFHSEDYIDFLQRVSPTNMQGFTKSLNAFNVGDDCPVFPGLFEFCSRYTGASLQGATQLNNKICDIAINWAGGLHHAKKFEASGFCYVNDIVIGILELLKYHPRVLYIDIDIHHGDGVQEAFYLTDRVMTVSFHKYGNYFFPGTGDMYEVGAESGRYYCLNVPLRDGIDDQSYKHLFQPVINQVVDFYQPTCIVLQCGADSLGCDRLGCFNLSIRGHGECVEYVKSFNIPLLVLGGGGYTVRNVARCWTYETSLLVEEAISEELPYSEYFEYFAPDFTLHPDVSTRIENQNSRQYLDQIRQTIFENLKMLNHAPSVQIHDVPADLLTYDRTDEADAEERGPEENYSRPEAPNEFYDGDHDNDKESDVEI
T1 sequence (Q13547 whole entry, looked up): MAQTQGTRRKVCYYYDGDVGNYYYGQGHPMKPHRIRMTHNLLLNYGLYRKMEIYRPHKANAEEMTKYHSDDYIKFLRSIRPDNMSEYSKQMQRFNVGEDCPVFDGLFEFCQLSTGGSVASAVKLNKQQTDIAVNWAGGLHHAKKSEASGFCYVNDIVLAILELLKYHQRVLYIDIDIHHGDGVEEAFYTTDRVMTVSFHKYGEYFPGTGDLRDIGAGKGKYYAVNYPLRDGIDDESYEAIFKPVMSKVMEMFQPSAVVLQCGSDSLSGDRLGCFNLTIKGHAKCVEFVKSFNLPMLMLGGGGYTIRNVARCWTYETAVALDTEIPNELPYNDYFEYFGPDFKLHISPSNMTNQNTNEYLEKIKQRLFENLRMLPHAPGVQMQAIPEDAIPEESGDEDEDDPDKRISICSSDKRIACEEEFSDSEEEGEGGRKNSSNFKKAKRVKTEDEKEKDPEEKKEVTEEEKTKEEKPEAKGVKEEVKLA
T1 sequence (Q92769 whole entry, looked up): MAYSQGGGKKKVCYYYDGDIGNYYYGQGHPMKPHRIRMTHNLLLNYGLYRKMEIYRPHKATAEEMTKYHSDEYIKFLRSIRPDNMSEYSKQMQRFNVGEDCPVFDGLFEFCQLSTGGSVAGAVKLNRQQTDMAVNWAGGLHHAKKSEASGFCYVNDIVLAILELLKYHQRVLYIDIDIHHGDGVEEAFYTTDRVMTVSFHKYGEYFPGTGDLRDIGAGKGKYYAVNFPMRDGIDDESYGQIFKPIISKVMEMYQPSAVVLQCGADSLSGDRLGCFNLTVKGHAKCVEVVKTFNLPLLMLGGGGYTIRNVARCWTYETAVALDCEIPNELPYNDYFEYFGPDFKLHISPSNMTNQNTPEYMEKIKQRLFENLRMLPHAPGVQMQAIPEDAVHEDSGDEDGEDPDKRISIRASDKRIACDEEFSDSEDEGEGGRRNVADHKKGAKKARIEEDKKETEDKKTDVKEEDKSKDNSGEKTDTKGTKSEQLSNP
T1 sequence (Q9BY41 whole entry, looked up): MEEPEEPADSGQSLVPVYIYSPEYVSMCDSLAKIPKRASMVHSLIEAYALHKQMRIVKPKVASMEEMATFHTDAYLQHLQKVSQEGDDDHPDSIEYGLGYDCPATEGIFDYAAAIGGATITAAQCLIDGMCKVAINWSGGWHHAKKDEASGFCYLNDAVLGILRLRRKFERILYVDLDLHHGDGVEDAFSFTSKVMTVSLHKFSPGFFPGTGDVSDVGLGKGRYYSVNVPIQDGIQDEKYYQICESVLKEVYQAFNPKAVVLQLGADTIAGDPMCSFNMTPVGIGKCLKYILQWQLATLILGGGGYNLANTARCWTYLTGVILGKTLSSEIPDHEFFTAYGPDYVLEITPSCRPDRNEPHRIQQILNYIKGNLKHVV

Turning to `CN(C)c1ccc(C(=O)N(CC(=O)NCc2ccccc2)Cc2ccc(C(=O)Nc3ccccc3N)cc2)cc1`, the CI turned out to be 0.32 in [1]; 0.4 in test [2]; 0.16 in [3]; 0.12 in test [4]; 0.25 in [5]; 0.07 in test [6]. The values for the CI in test [7] and in test [8] were 0.07 and 0.33, respectively.
For `Cc1cc(C)cc(C(=O)N(CCCCCC(=O)Nc2cc(-c3ccccc3)ccc2N)CC(=O)NCc2ccccc2)c1`, the outcome in test [9] was inactive. Further, the CI is less than 0.2 in test [10]; 0.12 in [11]; less than 0.2 in test [12]; less than 0.2 in [13]; less than 0.2 in test [15]; 0.25 in [16]. For the same compound, the CI in [17] was less than 0.2; in [18], less than 0.2; in test [19] it was less than 0.2; in [20], 0.09; in test [21], less than 0.2; in test [22], less than 0.2. Moreover, the CI is less than 0.2 in [23]; less than 0.2 in [24]; less than 0.2 in test [25]; 0.06 in test [26]; 0.74 in [27]. Moreover, in test [14], the inhibition amounted to 20%.
With `Cc1cc(C)cc(C(=O)N(CC(=O)NCc2ccccc2)Cc2ccc(C(=O)Nc3cc(-c4ccccc4)ccc3N)cc2)c1`, the CI is 0.27 in [10]; 0.08 in test [11]; 0.7 in test [1]; 0.5 in test [2]; less than 0.2 in [12]; 0.59 in test [3]. The CI in test [13] was 0.81; in test [15], 0.31; in test [16], 0.14; in test [17], 0.39; in [18], 0.2; in test [4] it was 0.76. Further, the CI is less than 0.2 in [5]; 0.42 in [19]; 0.21 in [6]; 0.19 in test [20]; 0.46 in [21]; 0.23 in test [22]. In addition, the CI in test [23] worked out at 0.34; in test [24] it was 0.52; in test [25], 0.89; in test [26], 0.08; in test [27], 0.18; in test [7], 0.1. The compound further showed a CI in [8] of 0.77. Further, in test [14], the inhibition is less than 15%.

The values are drawn from ChEMBL document CHEMBL4334526, “Synthesis of Peptoid-Based Class I-Selective Histone Deacetylase Inhibitors with Chemosensitizing Properties” (J Med Chem, 2019).
